The structures appear in SMILES notation. Counter-ions that a name gives are not always drawn.

Broadly, the melting point is the temperature of the solid-liquid transition.

As for `Cc1ccc(-c2nc(NN=C(N)N)nc3ccc(Cl)cc23)cc1` (as salt: HCl) [Example 10], the melting point lay in the range of 289 to 290 °C. Then `NC(N)=Nc1nc(-c2cccc(N3CCNCC3)c2)c2cc(Cl)ccc2n1` (as salt: HCl) [Example 225], with 241 °C.

The values are drawn from US20050020612A1, “4-Aryliquinazolines and the use thereof as nhe-3 inhibitors” (priority 2001, published 2005).
